≈ marks a conversion by molar mass, not a printed value. Where two headings read alike, the source gives them in different places.
Columns and labels:
Assay type in all cases: physicochemical
[1] = In vitro 2-phase (SGF/FaSSIF) miniaturized dissolution of solid dispersion films; details: SGF-FaSSIF, 37° C.
Experimental: In vitro, 2-phase (SGF/FaSSIF) miniaturized dissolution was performed, where the amount of dissolved API was monitored as a function of time. Before starting the dissolution assay, the films were stored at room temperature, for one day for the first screen and for 3 days for the second screen. By doing so, most of the residual solvent was evaporated. Actual dissolution experiments were performed in 96 1 mL glass vials using the Hamilton STAR plus liquid handling platform for both sampling and sample preparation. Before addition to the films, the media was preheated to 37° C. 300 μL of preheated SGF (37° C., pH 1.3) was then added to the solid dispersions. After 15 minutes of incubation in SGF, 600 μL of preheated concentrated FaSSIF (37° C., pH 10.5) was added to the samples. The addition of this concentrated FaSSIF to SGF results in a medium with a similar composition to the typical FaSSIF medium used in 1-phase dissolution studies. At predetermined time intervals (11, 24, 34, 49, 79, 139 minutes), aliquots were withdrawn from the dissolution media and filtered through a 0.45 μm GHP membrane filter. Subsequently, the filtered solutions were quantitatively diluted with N-methyl pyrrolidone (NMP) to prevent possible precipitation. The amount of dissolved API was determined by UPLC/UV-Vis analysis. Experiments were performed in duplicate for each formulation per screen. […]

[2] = Approximate solubility screening in organic solvents at ambient temperature; details: organic solvent or mixture, thermodynamic from solid, read-out: S (solubility)
Text: To screen appropriate solvent for spray drying, approximate solubility of starting material was estimated in different organic solvents at ambient temperature.

[3] = Equilibrium solubility determined by UPLC
[4] = Stability of API, SD1 powder and 10 mg SD1 tablets in HDPE bottles; set-up: key to Appearance: “T1”: white powder; “T2”: white or off white round tablet; details: Table 6
Experimental: Stability of the API, SD1 powder as well as the tablets (10 mg strength) comprising SD1 was tested by placing the tablets in High-density polyethylene (HDPE) bottles under stressed conditions as described in column 2 of Table 6.

[5] = Stability of API, SD2 powder and 10 mg SD2 tablets in HDPE bottles; set-up: key to Appearance: “T1”: white powder; “T2”: white or off white round tablet; details: Table 8
Experimental: Stability of the API, SD2 as well as the tablet (10 mg strength) comprising SD2 was tested by placing the tablets in HDPE bottles under stressed conditions as described in column 2 of Table 7.

Question: For `COc1cc(NC(C(=O)c2c[nH]c3ccc(OC(F)(F)F)cc23)c2ccc(Cl)cc2OC)cc(S(C)(=O)=O)c1` (centres unmarked) [API], which “final release of the total amount of API present in the films” value ([1]; first screen) is on record?
Answer: The value was “approximately 9%”.

Question: What about the “final release of the total amount of API present in the films” value ([1]; second screen) of the same compound?
Answer: Its value is “approximately 9%”.

Question: What about the solubility ([2]; Acetone/EtOH (1/1, v/v)) of the same compound?
Answer: The solubility was greater than 100 mg/mL.

Question: What about the solubility ([2]; Acetone/EtOH (2/1, v/v)) of the same compound?
Answer: Its solubility is greater than 100 mg/mL.

Question: What about the solubility ([2]; Acetone/H2O (9/1, v/v)) of the same compound?
Answer: Its solubility is greater than 100 mg/mL.

Question: What about the solubility ([2]; Acetone/MeOH (2/1, v/v)) of the same compound?
Answer: Its solubility is greater than 100 mg/mL.

Question: What about the solubility ([2]; EtOH/H2O (9/1, v/v), HPMC E5 added into co-solvent system directly) of the same compound?
Answer: The solubility was 10 to 12.5 mg/mL (≈ 17.2 to 21.4 mM).

Question: What about the solubility ([2]; MeOH) of the same compound?
Answer: Its solubility is 42 mg/mL (≈ 72 mM).

Question: And the solubility ([2]; MeOH/DCM (1/1, v/v))?
Answer: Its solubility is greater than 100 mg/mL.

Question: What about the solubility thermodynamic ([3]; MeOH/dichloromethane (1/1, organic solvent or mixture, thermodynamic from solid), MeOH/dichloromethane (DCM) (1/1, v/v)) of the same compound?
Answer: Its solubility thermodynamic is 317 mg/mL (≈ 544 mM).

Question: What about the solubility thermodynamic ([3]; organic solvent or mixture, thermodynamic from solid, MeOH) of the same compound?
Answer: Its solubility thermodynamic is 42 mg/mL (≈ 72 mM).

Question: What about the Appearance ([4]; 40° C./75% RH (closed), 1 M) of the same compound?
Answer: The Appearance was “T1”.

Question: What about the “Purity (%)” value ([4]; 40° C./75% RH (closed), 1 M) of the same compound?
Answer: The value was 98.96%.

Question: What about the “Total impurity (%)” value ([4]; 40° C./75% RH (closed), 1 M) of the same compound?
Answer: The value was 1.04%.

Question: What about the Appearance ([4]; 40° C./75% RH (closed), 2 M) of the same compound?
Answer: Its Appearance is “T1”.

Question: And the “Purity (%)” value ([4]; 40° C./75% RH (closed), 2 M)?
Answer: Its value is 98.94%.

Question: What about the “Total impurity (%)” value ([4]; 40° C./75% RH (closed), 2 M) of the same compound?
Answer: The value was 1.06%.

Question: And the Appearance ([4]; 40° C./75% RH (closed), 2 W)?
Answer: Its Appearance is “T1”.

Question: And the “Purity (%)” value ([4]; 40° C./75% RH (closed), 2 W)?
Answer: Its value is 98.95%.

Question: And the “Total impurity (%)” value ([4]; 40° C./75% RH (closed), 2 W)?
Answer: Its value is 1.05%.

Question: And the Appearance ([4]; 40° C./75% RH (closed), 3 M)?
Answer: Its Appearance is “T1”.

Question: What about the “Purity (%)” value ([4]; 40° C./75% RH (closed), 3 M) of the same compound?
Answer: The value was 98.95%.

Question: What about the “Total impurity (%)” value ([4]; 40° C./75% RH (closed), 3 M) of the same compound?
Answer: Its value is 1.05%.

Question: What about the Appearance ([4]; 40° C./75% RH (open), 1 M) of the same compound?
Answer: The Appearance was “T1”.

Question: What about the “Purity (%)” value ([4]; 40° C./75% RH (open), 1 M) of the same compound?
Answer: The value was 98.94%.

Question: And the “Total impurity (%)” value ([4]; 40° C./75% RH (open), 1 M)?
Answer: The value was 1.06%.

Question: What about the Appearance ([4]; 40° C./75% RH (open), 2 M) of the same compound?
Answer: Its Appearance is “T1”.

Question: What about the “Purity (%)” value ([4]; 40° C./75% RH (open), 2 M) of the same compound?
Answer: Its value is 98.96%.

Question: What about the “Total impurity (%)” value ([4]; 40° C./75% RH (open), 2 M) of the same compound?
Answer: The value was 1.04%.

Question: And the Appearance ([4]; 40° C./75% RH (open), 2 W)?
Answer: The Appearance was “T1”.

Question: And the “Purity (%)” value ([4]; 40° C./75% RH (open), 2 W)?
Answer: Its value is 98.95%.

Question: What about the “Total impurity (%)” value ([4]; 40° C./75% RH (open), 2 W) of the same compound?
Answer: Its value is 1.05%.

Question: What about the Appearance ([4]; 40° C./75% RH (open), 3 M) of the same compound?
Answer: Its Appearance is “T1”.

Question: And the “Purity (%)” value ([4]; 40° C./75% RH (open), 3 M)?
Answer: The value was 98.96%.

Question: And the “Total impurity (%)” value ([4]; 40° C./75% RH (open), 3 M)?
Answer: The value was 1.04%.

Question: And the Appearance ([5]; 40° C./75% RH (closed), 1 M)?
Answer: Its Appearance is “T1”.

Question: What about the “Purity (%)” value ([5]; 40° C./75% RH (closed), 1 M) of the same compound?
Answer: Its value is 98.96%.

Question: What about the “Total impurity (%)” value ([5]; 40° C./75% RH (closed), 1 M) of the same compound?
Answer: The value was 1.04%.

Question: What about the Appearance ([5]; 40° C./75% RH (closed), 2 M) of the same compound?
Answer: The Appearance was “T1”.

Question: And the “Purity (%)” value ([5]; 40° C./75% RH (closed), 2 M)?
Answer: Its value is 98.94%.

Question: And the “Total impurity (%)” value ([5]; 40° C./75% RH (closed), 2 M)?
Answer: Its value is 1.05%.

Question: What about the Appearance ([5]; 40° C./75% RH (closed), 2 W) of the same compound?
Answer: The Appearance was “T1”.

Question: And the “Purity (%)” value ([5]; 40° C./75% RH (closed), 2 W)?
Answer: Its value is 98.95%.

Question: And the “Total impurity (%)” value ([5]; 40° C./75% RH (closed), 2 W)?
Answer: Its value is 1.05%.

Question: And the Appearance ([5]; 40° C./75% RH (closed), 3 M)?
Answer: Its Appearance is “T1”.

Question: What about the “Purity (%)” value ([5]; 40° C./75% RH (closed), 3 M) of the same compound?
Answer: Its value is 98.95%.

Question: What about the “Total impurity (%)” value ([5]; 40° C./75% RH (closed), 3 M) of the same compound?
Answer: The value was 1.05%.

Question: And the Appearance ([5]; 40° C./75% RH (open), 1 M)?
Answer: The Appearance was “T1”.

Question: What about the “Purity (%)” value ([5]; 40° C./75% RH (open), 1 M) of the same compound?
Answer: Its value is 98.94%.

Question: And the “Total impurity (%)” value ([5]; 40° C./75% RH (open), 1 M)?
Answer: The value was 1.04%.

Question: What about the Appearance ([5]; 40° C./75% RH (open), 2 M) of the same compound?
Answer: Its Appearance is “T1”.

Question: And the “Purity (%)” value ([5]; 40° C./75% RH (open), 2 M)?
Answer: Its value is 98.96%.

Question: And the “Total impurity (%)” value ([5]; 40° C./75% RH (open), 2 M)?
Answer: Its value is 1.04%.

Question: What about the Appearance ([5]; 40° C./75% RH (open), 2 W) of the same compound?
Answer: The Appearance was “T1”.

Question: What about the “Purity (%)” value ([5]; 40° C./75% RH (open), 2 W) of the same compound?
Answer: Its value is 98.95%.

Question: And the “Total impurity (%)” value ([5]; 40° C./75% RH (open), 2 W)?
Answer: The value was 1.06%.

Question: What about the Appearance ([5]; 40° C./75% RH (open), 3 M) of the same compound?
Answer: Its Appearance is “T1”.

Question: And the “Purity (%)” value ([5]; 40° C./75% RH (open), 3 M)?
Answer: Its value is 98.96%.

Question: What about the “Total impurity (%)” value ([5]; 40° C./75% RH (open), 3 M) of the same compound?
Answer: Its value is 1.05%.
